Reference: patent US8609694B2, “Use of pyridin-2-yl-methylamine derivatives for the production of a medicament for the treatment of chronic pain symptoms of neuropathological or psychogenic origin” (Pierre Fabre Medicament, priority 2003, dated 2013)

Assays:
[1] = system: hypersensitivity (allodynia) after unilateral ligature of the infraorbital nerve (peripheral neuropathy); experiment: peripheral neuropathy test in the rat (unilateral ligature of the infraorbital nerve, von Frey hair response score 0-4); assay type: in vivo; conditions: for analgesic effect six days after the treatment's end (day 21): day 21, 6 days after pump explantation, same doses; for reduction of hypersensitivity (allodynia) to stimulation during treatment, versus saline: osmotic pump 14 days implanted 24 hours before lesion, (Ia) 0.63, (Ib) 0.16, morphine 5, baclofen 1.06 mg/rat/day, days 4-15; for amplitude of decrease of perceived pain intensity compared with baclofen: after nerve lesion of peripheral origin; for amplitude of analgesia 6 days after the treatment's end compared with amplitude at the treatment's end (day 15): day 21 versus day 15
Procedure: The peripheral neuropathy test used was conducted in the rat according to a method analogous to that described by Vos in J. Neurosci. 1994, 14, 2708-2723. The product to be tested is delivered at a constant rate (0.12 ml/day) by means of an osmotic pump (Alzet, model 2ML2) for 14 days. The pumps are implanted 24 hours before lesion (unilateral ligature of the infraorbital nerve) and then explanted at the treatment's end. The pumps are implanted subcutaneously via a transverse incision made in the dorsal skin of the rat. Evaluation of the intensity of perceived pain is objectified from a series of behavioral signs observed in response to mechanical stimulation of the region lesioned by means of von Frey hairs. Stimulations are applied in order of increasing intensity. Intensity of perceived pain is evaluated from the following criteria: 0, no response by the animal; 1, detection (i.e., the rat turns its head towards the object used for stimulation); 2, withdrawal (i.e., the rat turns away or makes a withdrawal movement with its head to avoid the object used for stimulation); 3, flight or attack (i.e., the rat avoids the object by moving its body or deliberately attacks the object used for stimulation); 4, face rubbing (i.e., the rat rubs the area of stimulation three times in succession). The response level by the non-lesioned animals was 0 or 1.
The fumarate of compound (Ia) is administered at 0.63 mg/rat/day; the glycolate of compound (Ib) at 0.16 mg/rat/day; morphine hydrochloride at 5 mg/rat/day, and baclofen at 1.06 mg/rat/day. All the compounds are administered in solution in distilled water. The pumps implanted in the control animals release a 0.9% NaCl solution (saline)/rat/day; the doses refer to the weight of non-salified compound.
The effects obtained with compounds (Ia), (Ib), and the products chosen as references are represented in FIGS. 4 to 8 in the appendix. FIGS. 4 to 7 represent the analgesic effects of the various products evaluated at days 4, 6, 8, 11, and 13 of treatment and 1 day following explantation of the pump (day 15). FIG. 8 represents the analgesic effects of the various products measured at day 21, which is 6 days following the treatment's end.
The individual scores of each animal represent the average (±standard error) obtained after application of the von Frey hairs. The comparison of the results between the various groups as well as the progress of the values obtained over time are performed using an analysis of variance test (ANOVA), followed by a Dunnett's multiple comparison test.

[2] = system: chronic hypersensitivity after spinal cord lesion (central neuropathy); experiment: central neuropathy test in the rat (spinal cord lesion, vocalization threshold to von Frey hairs); assay type: in vivo; conditions: fumarate of (Ia) 0.63 mg/rat/day
Procedure: The central neuropathy test used is conducted in the rat according to a method analogous to that described by Hao and Xu in Pain 1996, 66, 279-286. The product to be tested is delivered at a constant rate by means of an osmotic pump (Alzet, model 2ML2) for 14 days. The pumps are implanted 28 days after spinal cord lesion and then explanted at the treatment's end. In this model, it was established that at 28 days post-lesion the animal is in a phase of chronic hypersensitivity which then lasts for several months. In this experiment, the hypersensitivity of the lesioned animals treated with compound (Ia) or with saline solution was measured. The pain threshold was objectified by the animal's persistent vocalization in response to a stimulation of increasing intensity in the sensitive region by means of von Frey hairs. […] The fumarate of compound (Ia) is administered at 0.63 mg/rat/day. The pumps implanted in the group of lesioned control animals release a 0.9% NaCl solution (saline)/rat/day.
The stimulation sensitivity tests by means of von Frey hairs are conducted 3 days after implantation of the osmotic pump and continue regularly for 28 days. The doses refer to the weight of non-salified compound.
The effects obtained with compound (Ia) in comparison with those of the lesioned control animals that received saline solution are represented in FIG. 3 in the appendix.

[3] = system: hypersensitivity (allodynia) after unilateral ligature of the infraorbital nerve (peripheral neuropathy); conditions: rat infraorbital nerve ligature model; cited from earlier work

Row | Compound | analgesic effect six days after the treatment's end (day 21) [1] | reduction of hypersensitivity (allodynia) to stimulation during treatment, versus saline [1] | amplitude of decrease of perceived pain intensity compared with baclofen [1] | amplitude of analgesia 6 days after the treatment's end compared with amplitude at the treatment's end (day 15) [1] | analgesia after treatment is interrupted (curative phase) ([2]; after day 15, 14 days following pump explantation) | symptomatic analgesia (vocalization threshold to von Frey stimulation) during treatment, versus saline ([2]; osmotic pump 14 days implanted 28 days after spinal cord lesion) | activity in the peripheral neuropathy model as established previously [3]
1 | CN1CC[C@]23c4c5ccc(O)c4O[C@H]2[C@@H](O)C=C[C@H]3[C@H]1C5 [morphine, reference compound] | disappeared completely | inactive |  |  |  |  | 
2 | CNc1nc(CNCC2(F)CCN(C(=O)c3ccc(F)c(Cl)c3)CC2)ccc1C [Compound (Ib)] | continued to show a significant analgesic effect | significantly only after day 13 | at least equivalent | not statistically different |  |  | 
3 | Cc1ccc(CNCC2(F)CCN(C(=O)c3ccc(F)c(Cl)c3)CC2)nc1 [Compound (Ia)] | continued to show a significant analgesic effect | significantly after day 11 | at least equivalent | not statistically different | analgesia persists and is maintained at the same level as that attained at the treatment's end | statistically significant as of the tenth day of treatment | 
4 | NCC(CC(=O)O)c1ccc(Cl)cc1 (stereo not drawn) [baclofen, reference compound] | disappeared completely | significant analgesic effect after day 11 |  |  |  |  | agent with the highest activity
